This data set in a line: Oral pharmacokinetics in WT littermates of the BACHD colony. The data set is classed as in vivo, mouse. Particulars: single oral dose of 10 mg/kg. The procedure:
Oral pharmacokinetics (PK) of compounds was evaluated in WT littermates from the BACHD colony (FVB background). Mice were treated with test compounds (10 mg/kg) by oral gavage in 0.5% hydroxypropylmethyl cellulose (HPMC) with 0.1% Tween 80. Blood was collected by terminal cardiac puncture at specified time points (3 mice per time point) and centrifuged to generate plasma. Brain tissue was collected at the time of blood collection and homogenized in water. Protein was precipitated from plasma and brain homogenates with acetonitrile, methanol mixture (5:1, v:v) containing an internal standard that is a close analog of the test compounds. The mixture was filtered through an EMD Millipore MultiScreen™ Solvinert Filter Plate (MSRLN04, Millipore, Burlington, Mass.). Calibration standards were prepared in the same matrix and processed with the testing samples. Filtrates were analysed using Acquity ultra performance liquid chromatography (UPLC) system (Waters Corporation) tandem with Xevo TQ-s Spectrometer (Waters Corporation). Samples were injected on to a Waters UPLC Acquity BEH C18 Column (2.1*50 mm, 1.7 μm) maintained at 50° C. The injection volume was 3 μL and the mobile phase flow rate was 0.45 mL/min. The mobile phase consisted of 2 solvents: A) 0.1% formic acid in water and B) 0.1% formic acid in acetonitrile. […]

The source of these data is US20220162610A1, “NOVEL RNA TRANSCRIPT” (PTC Therapeutics, Inc., priority 2020, published 2022).

For `CC1(C)CC(Oc2ccc(-c3ccc(-c4cn[nH]c4)cc3O)nn2)CC(C)(C)N1` [HTT-C2], the plasma exposure entry was “superior exposure to HTT-C1”.
